Test results reported in US10808003B2, “Amphipathic molecule based on tandem malonate and use thereof” (Industry-University Cooperation Foundation Hanyang …, priority 2017, dated 2020).

What was measured:
[1] = biological target: T1, uric acid-xanthine/H+ symporter (UapA) (Emericella nidulans, UniProt Q07307, G411V); experiment: Thermal/structural stability of UapA by CPM fluorescence assay; type: biochemical, Aspergillus nidulans; details: for ability to conserve UapA transporter in a folded state: 125 minutes at 40° C.
T1 construct: GFP; made in house; host or cells: Saccharomyces cerevisiae FGY217
T1 sequence (Q07307 12-574 G411V): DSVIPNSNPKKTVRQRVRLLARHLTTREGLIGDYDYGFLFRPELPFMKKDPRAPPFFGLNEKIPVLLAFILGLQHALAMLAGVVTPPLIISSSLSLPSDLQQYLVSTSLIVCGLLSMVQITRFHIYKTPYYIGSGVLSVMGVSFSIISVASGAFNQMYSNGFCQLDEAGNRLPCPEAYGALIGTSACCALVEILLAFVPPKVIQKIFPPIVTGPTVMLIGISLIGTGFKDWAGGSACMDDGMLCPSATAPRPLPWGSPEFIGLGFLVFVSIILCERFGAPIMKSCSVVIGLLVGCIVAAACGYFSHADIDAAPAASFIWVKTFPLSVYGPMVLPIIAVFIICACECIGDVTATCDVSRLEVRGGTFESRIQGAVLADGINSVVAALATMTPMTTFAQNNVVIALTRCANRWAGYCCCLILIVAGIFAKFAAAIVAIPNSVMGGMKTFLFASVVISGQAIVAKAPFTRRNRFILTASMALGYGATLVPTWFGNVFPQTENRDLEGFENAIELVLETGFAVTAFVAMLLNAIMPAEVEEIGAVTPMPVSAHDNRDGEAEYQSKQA
Protocol: An experiment of measuring structural stability of a uric acid-xanthine/H+ symporter (UapA) separated from Aspergillus nidulans by TMG was performed. The structural stability of UapA was evaluated using a sulfhydryl-specific fluorophore and N-[4-(7-diethylamino-4-methyl-3-coumarinyl)phenyl]maleimide (CPM).
Specifically, UapAG411V1-11 (hereinafter, referred to as “UapA”) expressed as a GFP fusion protein from a Saccharomyces cerevisiae FGY217 strain, and the protein was separated using a sample buffer (20 mM Tris (pH 7.5), 150 mM NaCl, 0.03% DDM, 0.6 mM xanthine) according to a method disclosed in the article written by J. Leung et al. (Mol. Membr. Biol. 2013, 30, 32-42). The protein having a molecular weight of 100 kDa was concentrated to approximately 10 mg/mL using a cut-off filter (Millipore). The protein was diluted with a buffer containing each of the TMG-As (TMG-A11, TMG-A12, TMG-A13 and TMG-A14), TMG-Ts (TMG-T11, TMG-T12, TMG-T13 and TMG-T14), MNG-3 or DDM at a ratio of 1:150 to reach the final concentration of CMC+0.04 wt % or CMC+0.2 wt % in a Greiner 96-well plate. A CPM dye (Invitrogen) stored in DMSO (Sigma) was diluted with a staining buffer (20 mM Tris (pH 7.5), 150 mM NaCl, 0.03% DDM, 5 mM EDTA), and 3 μL of the staining buffer was added to each sample. The reaction mixture was incubated at a constant temperature for 125 minutes at 40° C. Fluorescence emission was recorded using a microplate spectrofluorometer set to each of excitation and emission wavelengths of 387 nm and 463 nm. A relative amount of folded proteins was plotted over time using GraphPad Prism.

[2] = Hydrodynamic radius of micelles by dynamic light scattering (DLS); type: physicochemical; details: for Rh (nm), hydrodynamic radius of micelles: micelles formed by each agent at 1.0 wt %; for micelle size and homogeneity in words: 1.0 wt %, FIGS. 5 and 6
Protocol: A method of measuring the radius of the micelles is not particularly limited, and any method well known in the art, for example, a DLS test may be used.
(§1) Specifically, a CMC was measured using fluorescent staining and diphenylhexatriene (DPH), and the hydrodynamic radii (Rh) of micelles formed by each agent (1.0 wt %) were measured by a DLS test. The measured results were compared with those for the conventional amphipathic molecule (detergent), DDM, and thus are shown in Table 1.

[3] = Critical micelle concentration by fluorescent staining with diphenylhexatriene (DPH); type: physicochemical; details: aqueous solution
Protocol: A method of measuring CMC is not particularly limited, and any method well known in the art, for example, a fluorescent staining method using diphenylhexatriene (DPH) may be used.
as §1

[4] = tested on: LeuT (leucine transporter); experiment: LeuT stability by [3H]-Leu substrate binding, scintillation proximity assay (SPA); type: biochemical, Aquifex aeolicus; details: for substrate-binding ability of LeuT: TMGs or DDM at CMC+0.04 wt %, 10 days at room temperature; for activity of LeuT after incubation, relative to DDM: CMC+0.04 wt %, after incubation at room temperature; for activity of LeuT after incubation, relative to DDM / activity of LeuT over time: FIG. 13a; for activity of LeuT over time: TMMs or DDM at CMC+0.04 wt %, incubation at room temperature
Protocol: An experiment of measuring LeuT protein stability for TMGs and TMMs was performed. (a) CMC+0.04 wt % or (b) CMC+0.2 wt % of each amphipathic molecule was used, and the evaluation of the LeuT protein stability was performed by taking an advantage of a characteristic of LeuT binding to a substrate through a scintillation proximity assay (SPA) using [^3H]-Leu. […]
Specifically, wild type LeuT (leucine transporter) derived from a thermophilic bacterium, Aquifex aeolicus, was purified by a previously-disclosed method (G. Deckert et al., Nature 1998, 392, 353-358). LeuT was expressed in E. coli C41 (DE3) transformed with pET16b encoding a C-terminus 8×His-tagged transporter (the expression plasmid was provided by Dr E. Gouaux, Vollum Institute, Portland, Oreg., USA). In summary, following isolation of a bacterial membrane and lysis with 1% (w/v) DDM, the protein was allowed to bind to a Ni^2+-NTA resin (Life Technologies, Denmark), and eluted in 20 mM Tris-HCl (pH 8.0), 1 mM NaCl, 199 mM KCl, 0.05% (w/v) DDM and 300 mM imidazole. Afterward, the purified LeuT (approximately 1.5 mg/ml) was diluted with the same buffer used above, from which DDM and imidazole were removed, and then supplemented with TMGs or DDM at the final concentration of CMC+0.04% (w/v). […] SPA was performed using a buffer containing 450 mM NaCl and each of the TMGs and TMMs at the predetermined concentration. The SPA reaction is performed in the presence of 20 nM [^3H]-Leucine and 1.25 mg/ml copper chelate (His-Tag) YSi beads (Perkin Elmer, Denmark). A total [^3H]-Leucine binding degree of each sample was measured using a MicroBeta liquid scintillation counter (Perkin Elmer).

activity of LeuT over time [4] | Structure (SMILES) | ability to maintain the UapA transporter structure, comparison with MNG-3 and DDM ([1]; concentration not given) | ability to conserve UapA transporter in a folded state ([1]; CMC+0.04 wt %, FIG. 9) | ability to conserve UapA transporter in a folded state ([1]; CMC+0.2 wt %, FIG. 10) | Rh (nm), hydrodynamic radius of micelles [2] [nm] | CMC [3] [mM] | CMC (wt %) [3] [wt %] | substrate-binding ability of LeuT [4] | activity of LeuT after incubation, relative to DDM [4] | micelle size and homogeneity in words [2] | overall LeuT stabilisation characteristic among TMMs ([4]; CMC+0.04 wt % and CMC+0.2 wt %, FIGS. 13a and 13b)
– | CCCCCCCCCCC(CCCCCCCCCC)(CO[C@@H]1O[C@H](CO)[C@@H](O[C@H]2O[C@H](CO)[C@@H](O)[C@H](O)[C@H]2O)[C@H](O)[C@H]1O)CO[C@@H]1O[C@H](CO)[C@@H](O[C@H]2O[C@H](CO)[C@@H](O)[C@H](O)[C@H]2O)[C@H](O)[C@H]1O [MNG-3, reference compound] | a little superior to DDM | – | – | – | – | – | – | – | – | –
– | CCCCCCCCCCCC(CCCC(CCCCCCCCCCC)(CO[C@@H]1OC(CO)[C@@H](O)C(O)C1O)CO[C@@H]1OC(CO)[C@@H](O)C(O)C1O)(CO[C@@H]1OC(CO)[C@@H](O)C(O)C1O)CO[C@@H]1OC(CO)[C@@H](O)C(O)C1O (stereo partly drawn) [TMG-A11] | – | the least excellent in transporter stability | the least effective, and had lower stability than DDM | 3.1 ± 0.15 | ~0.015 | ~0.0017 | – | – | – | –
– | CCCCCCCCCCCOCC(CO[C@@H]1OC(CO)[C@@H](O)C(O)C1O)(CO[C@@H]1OC(CO)[C@@H](O)C(O)C1O)CSCC(COCCCCCCCCCCC)(CO[C@@H]1OC(CO)[C@@H](O)C(O)C1O)CO[C@@H]1OC(CO)[C@@H](O)C(O)C1O (stereo partly drawn) [TMG-T11] | – | – | the least effective, and had lower stability than DDM | 3.0 ± 0.07 | ~0.020 | ~0.0025 | a better characteristic than DDM | – | – | –
– | CCCCCCCCCCCCOCC(CO[C@@H]1OC(CO)[C@@H](O)C(O)C1O)(CO[C@@H]1OC(CO)[C@@H](O)C(O)C1O)CSCC(COCCCCCCCCCCCC)(CO[C@@H]1OC(CO)[C@@H](O)C(O)C1O)CO[C@@H]1OC(CO)[C@@H](O)C(O)C1O (stereo partly drawn) [TMG-T12] | – | – | – | 3.1 ± 0.06 | ~0.015 | ~0.0019 | a better characteristic than DDM | – | – | –
– | CC(C)CCC[C@@H](C)C1CCC2C3CCC4CC(OCC(CO[C@@H]5OC(CO)[C@@H](O[C@H]6OC(CO)[C@@H](O)C(O)C6O)C(O)C5O)(CO[C@@H]5OC(CO)[C@@H](O[C@H]6OC(CO)[C@@H](O)C(O)C6O)C(O)C5O)CSCC(COC5CCC6(C)C(CCC7C6CCC6(C)C7CCC6[C@H](C)CCCC(C)C)C5)(CO[C@@H]5OC(CO)[C@@H](O[C@H]6OC(CO)[C@@H](O)C(O)C6O)C(O)C5O)CO[C@@H]5OC(CO)[C@@H](O[C@H]6OC(CO)[C@@H](O)C(O)C6O)C(O)C5O)CCC4(C)C3CCC21C (stereo partly drawn) [TMM-A27] | – | – | – | 4.1 ± 0.10 | ~0.006 | ~0.00014 | – | protein activity similar to DDM | large | –
slightly increased over time | CCCCCCCCCCC(CCCCCCCCCC)COCC(CO[C@@H]1OC(CO)[C@@H](O[C@H]2OC(CO)[C@@H](O)C(O)C2O)C(O)C1O)(CO[C@@H]1OC(CO)[C@@H](O[C@H]2OC(CO)[C@@H](O)C(O)C2O)C(O)C1O)CSCC(COCC(CCCCCCCCCC)CCCCCCCCCC)(CO[C@@H]1OC(CO)[C@@H](O[C@H]2OC(CO)[C@@H](O)C(O)C2O)C(O)C1O)CO[C@@H]1OC(CO)[C@@H](O[C@H]2OC(CO)[C@@H](O)C(O)C2O)C(O)C1O (stereo partly drawn) [TMM-C22] | – | – | – | 3.6 ± 0.09 | ~0.002 | ~0.00044 | – | two-fold higher than that of the protein dissolved in DDM | – | –
slightly increased over time | CCCCCCCCCCCC(CCCCCCCCCCC)COCC(CO[C@@H]1OC(CO)[C@@H](O[C@H]2OC(CO)[C@@H](O)C(O)C2O)C(O)C1O)(CO[C@@H]1OC(CO)[C@@H](O[C@H]2OC(CO)[C@@H](O)C(O)C2O)C(O)C1O)CSCC(COCC(CCCCCCCCCCC)CCCCCCCCCCC)(CO[C@@H]1OC(CO)[C@@H](O[C@H]2OC(CO)[C@@H](O)C(O)C2O)C(O)C1O)CO[C@@H]1OC(CO)[C@@H](O[C@H]2OC(CO)[C@@H](O)C(O)C2O)C(O)C1O (stereo partly drawn) [TMM-C24] | – | – | – | 3.9 ± 0.08 | ~0.0015 | ~0.00034 | – | two-fold higher than that of the protein dissolved in DDM | – | the most excellent characteristic and was superior to DDM
– | CCCCCCCCCCCCC(CCCCCCCCCCCC)COCC(CO[C@@H]1OC(CO)[C@@H](O[C@H]2OC(CO)[C@@H](O)C(O)C2O)C(O)C1O)(CO[C@@H]1OC(CO)[C@@H](O[C@H]2OC(CO)[C@@H](O)C(O)C2O)C(O)C1O)CSCC(COCC(CCCCCCCCCCCC)CCCCCCCCCCCC)(CO[C@@H]1OC(CO)[C@@H](O[C@H]2OC(CO)[C@@H](O)C(O)C2O)C(O)C1O)CO[C@@H]1OC(CO)[C@@H](O[C@H]2OC(CO)[C@@H](O)C(O)C2O)C(O)C1O (stereo partly drawn) [TMM-C26] | – | – | – | 4.3 ± 0.07 | ~0.0015 | ~0.00034 | – | protein activity similar to DDM | – | –
– | CC1CCC2(OC1)OC1CC3C4CC=C5CC(OCC(CO[C@@H]6OC(CO)[C@@H](O[C@H]7OC(CO)[C@@H](O)C(O)C7O)C(O)C6O)(CO[C@@H]6OC(CO)[C@@H](O[C@H]7OC(CO)[C@@H](O)C(O)C7O)C(O)C6O)CSCC(COC6CCC7(C)C(=CCC8C7CCC7(C)C8CC8OC9(CCC(C)CO9)C(C)C87)C6)(CO[C@@H]6OC(CO)[C@@H](O[C@H]7OC(CO)[C@@H](O)C(O)C7O)C(O)C6O)CO[C@@H]6OC(CO)[C@@H](O[C@H]7OC(CO)[C@@H](O)C(O)C7O)C(O)C6O)CCC5(C)C4CCC3(C)C1C2C (stereo partly drawn) [TMM-D27] | – | – | – | 3.1 ± 0.07 | ~0.010 | ~0.0024 | – | protein activity similar to DDM | relatively small micelles | –
– | CC(C)CCC[C@@H](C)C1CCC2C3CC=C4CC(OCC(CO[C@@H]5OC(CO)[C@@H](O[C@H]6OC(CO)[C@@H](O)C(O)C6O)C(O)C5O)(CO[C@@H]5OC(CO)[C@@H](O[C@H]6OC(CO)[C@@H](O)C(O)C6O)C(O)C5O)CSCC(COC5CCC6(C)C(=CCC7C6CCC6(C)C7CCC6[C@H](C)CCCC(C)C)C5)(CO[C@@H]5OC(CO)[C@@H](O[C@H]6OC(CO)[C@@H](O)C(O)C6O)C(O)C5O)CO[C@@H]5OC(CO)[C@@H](O[C@H]6OC(CO)[C@@H](O)C(O)C6O)C(O)C5O)CCC4(C)C3CCC21C (stereo partly drawn) [TMM-E27] | – | – | – | 4.7 ± 0.10 | ~0.008 | ~0.00018 | – | protein activity similar to DDM | large | –
